Measured values published in US7491794B2, “Macrocyclic compounds as inhibitors of viral replication” (Intermune, Inc., priority 2003, dated 2009).

How the values were obtained:
NS3-NS4 protease = target: T1, NS3-NS4 protease (Hepatitis C virus genotype 1a, UniProt P27958); experiment: NS3-NS4 protease assay / NS3 inhibition assay, Section C; type: biochemical; settings: read-out: NS3-NS4 IC50
T1 construct: Recombinant E. coli or Baculovirus full-length NS3 was diluted to 3.33 μM with assay buffer; made in house; host or cells: E. coli or baculovirus (BV) system
T1 sequence (P27958 1027-1657): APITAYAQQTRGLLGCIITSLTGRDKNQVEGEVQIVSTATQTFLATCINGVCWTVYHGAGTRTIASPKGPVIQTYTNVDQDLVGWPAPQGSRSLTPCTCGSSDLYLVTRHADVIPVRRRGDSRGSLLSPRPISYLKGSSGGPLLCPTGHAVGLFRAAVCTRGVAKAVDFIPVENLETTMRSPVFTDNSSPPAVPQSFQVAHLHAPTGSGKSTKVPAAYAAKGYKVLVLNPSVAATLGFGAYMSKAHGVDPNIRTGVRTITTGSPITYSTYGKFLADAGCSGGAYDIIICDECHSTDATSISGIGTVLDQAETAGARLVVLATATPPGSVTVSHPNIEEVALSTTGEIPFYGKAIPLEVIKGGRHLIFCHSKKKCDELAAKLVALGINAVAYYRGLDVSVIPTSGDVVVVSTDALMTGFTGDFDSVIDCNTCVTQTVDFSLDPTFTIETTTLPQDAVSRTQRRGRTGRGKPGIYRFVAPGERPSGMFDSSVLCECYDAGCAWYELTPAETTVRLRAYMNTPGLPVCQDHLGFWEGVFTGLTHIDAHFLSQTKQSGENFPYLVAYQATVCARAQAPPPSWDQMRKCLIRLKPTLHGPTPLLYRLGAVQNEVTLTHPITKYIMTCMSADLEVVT
Description: NS3 complex formation with NS4A-2.
Recombinant E. coli or Baculovirus full-length NS3 was diluted to 3.33 μM with assay buffer and transfered material to an eppendorf tube and place in water bath in 4° C. refrigerator. The appropriate amount of NS4A-2 to 8.3 mM in assay buffer was added to equal the volume of NS3 in step 2.1.1 (conversion factor −3.8 mg/272 μL assay buffer). The material was transferred to an eppendorf tube and place in water bath in 4° C. refrigerator.
After equilibration to 4° C., equal volumes of NS3 and NS4A-2 solutions were combined in an eppendorf tube, mix gently with a manual pipettor, and incubate mixture for 15 minutes in the 4° C. water bath. Final concentrations in the mixture are […] NS3, 4.15 mM NS4A-2 (2485-fold molar excess NS4A-2).
After 15 minutes at 4° C., the NS3/NS4A-2 eppendorf tube was removed and place it in a room temperature water bath for 10 minutes. NS3/NS4A-2 was alliquoted at appropriate volumes and store at −80° C. (E. coli NS3 run at 2 nM in assay, aliquot at 25 μL. BV NS3 run at 3 nM in assay, aliquot at 30 μL).
Step 2.2.5. Sample compounds were dissolved to 10 mM in DMSO then diluted to 2.5 mM (1:4) in DMSO.
Step 2.2.6. The E. coli. NS3/NS4A-2 was diluted to 4 nM NS3 (1:417.5 of […] stock−18 μL 1.67 μM stock+7497 μL assay buffer). The BV NS3/NS4A-2 was diluted to 6 nM NS3 (1:278.3 of 1.67 μM stock−24 μL 1.67 μM stock+6655 μL assay buffer).
Step 2.2.7. Using the manual multichannel pipettor, and being careful not to introduce bubbles into the plate, 50 μL assay buffer were added to wells A01-H01 of a black Costar 96-well polypropylene storage plate.
Step 2.2.8. Using the manual multichannel pipettor, and being careful not to introduce bubbles into the plate, 50 μL of diluted NS3/NS4A-2 from step 2.2.6 were added to wells A02-H12 of plate in step 2.2.7.
Step 2.2.9. Using the manual multichannel pipettor, and being careful not to introduce bubbles into the plate, 25 μL of the wells in drug dilution plate in step 2.2.5 were transferred to corresponding wells in assay plate in step 2.2.8. The tips on multichannel pipettor were changed for each row of compounds transferred.
Step 2.2.10. Using the manual multichannel pipettor, and being careful not to introduce bubbles into the plate, the contents of the wells from the assay plate in step 2.2.9 were mixed by aspirating and dispensing 35 μL of the 75 μL in each well five times. The tips on the multichannel pipettor were changed for each row of wells mixed.
Step 2.2.11. The plate was covered with a polystyrene plate lid, and the plate from step 2.2.10 containing NS3 protease and sample compounds was pre-incubated 10 minutes at room temperature.
While the plate from step 2.2.11 was pre-incubating, the RETS1 substrate was diluted in a 15 mL polypropylene centrifuge tube. The RETS1 substrate was diluted to 8 μM (1:80.75 of 646 μM stock−65 μL 646 μM stock+5184 μL assay buffer).
After the plate in step 2.2.11 was done pre-incubating, and using the manual multichannel, 25 μL of substrate were added to all wells on the plate. The contents of the wells of plate were quickly mixed, as in step 2.2.10, but mixing 65 μL of the 100 μL in the wells.
The plate was read in kinetic mode on the Molecular Devices SpectraMax Gemini XS plate reader. Reader settings: Read time: 30 minutes, Interval: 36 seconds, Reads: 51, Excitation λ: 335 nm, Emission λ: 495 nm, cutoff: 475 nm, Automix: off, Calibrate: once, PMT: high, Reads/well: 6, Vmax pts: 21 or 28/51 depending on length of linearity of reaction.
IC50s were determined using a four parameter curve fit equation, and converted to Ki's using the following Km's:
where Ki=IC50/(1+[S]/Km))

[1] = test system: HCV sub-genomic replicon, GS4.3; experiment: Quantitation by ELISA of NPTII in the HCV sub-genomic replicon, GS4.3, Section C; type: cell-based; settings: Hepatitis C virus; GS4.3 cells, 72 h incubation; read-out: EC50
From the text: Quantitation by ELISA of the selectable marker protein, Neomycin phosphotransferase II (NPTII) in the HCV Sub-Genomic Replicon, GS4.3
The HCV sub-genomic replicon (1377/NS3-3′, accession No. AJ242652), stably maintained in HuH-7 hepatoma cells, was created by Lohmann et al. Science 285: 110-113 (1999). The replicon-containing cell culture, designated GS4.3, was obtained from Dr. Christoph Seeger of the Institute for Cancer Research, Fox Chase Cancer Center, Philadelphia, Pa.
GS4.3 cells were maintained at 37° C., 5% CO2, in DMEM (Gibco 11965-092) supplemented with L-glutamine 200 mM (100×) (Gibco25030-081), non-essential amino acids (NEAA)(Biowhittaker 13-114E), heat-inactivated (HI) Fetal Bovine Serum(FBS)(Hyclone SH3007.03) and 750 μg/ml geneticin (G418)(Gibco 10131-035). Cells were sub-divided 1:3 or 4 every 2-3 days.
24 h prior to the assay, GS4.3 cells were collected, counted, and plated in 96-well plates (Costar 3585) at 7500 cells/well in 100 μl standard maintenance medium (above) and incubated in the conditions above. To initiate the assay, culture medium was removed, cells were washed once with PBS (Gibco 10010-023) and 90 μl Assay Medium (DMEM, L-glutamine, NEAA, 10% HI FBS, no G418) was added. Inhibitors were made as a 10× stock in Assay Medium, (3-fold dilutions from 10 μM to […] final concentration, final DMSO concentration 1%), 10 μl were added to duplicate wells, plates were rocked to mix, and incubated as above for 72 h.
An NPTII Elisa kit was obtained from AGDIA, Inc. (Compound direct ELISA test system for Neomycin Phosphotransferase II, PSP 73000/4800). Manufacturer's instructions were followed, with some modifications. 10×PEB-1 lysis buffer was made up to include 500 μM PMSF (Sigma P7626, 50 mM stock in isopropanol). After 72 h incubation, cells were washed once with PBS and 150 μl PEB-1 with PMSF was added per well. Plates were agitated vigorously for 15 minutes, room temperature, then frozen at −70° C. Plates were thawed, lysates were mixed thoroughly, and 100 μl were applied to an NPTII Elisa plate. A standard curve was made. Lysate from DMSO-treated control cells was pooled, serially diluted with PEB-1 with PMSF, and applied to duplicate wells of the ELISA plate, in a range of initial lysate amount of 150u1-2.5 ul. In addition, 100 μl buffer alone was applied in duplicate as a blank. Plates were sealed and gently agitated at room temperature for 2 h. Following capture incubation, the plates were washed 5×300 μl with PBS-T (0.5% Tween-20, PBS-T was supplied in the ELISA kit). For detection, a 1× dilution of enzyme conjugate diluent MRS-2 (5×) was made in PBS-T, into which 1:100 dilutions of enzyme conjugates A and B were added, as per instructions. Plates were resealed, and incubated with agitation, covered, room temperature, for 2 h. The washing was then repeated and 100 μl of room temperature TMB substrate was added. After approximately 30 minutes incubation (room temperature, agitation, covered), the reaction was stopped with 50 μl 3M sulfuric acid. Plates were read at 450 nm on a Molecular Devices Versamax plate reader.
Inhibitor effect was expressed as a percentage of DMSO-treated control signal, and inhibition curves were calculated using a 4-parameter equation: y=A+((B−A)/(1+((C/x)^D))), where C is half-maximal activity or EC50.

| SMILES | IC50 (NS3-NS4 protease) [nM] | EC50 [1] [nM] |
| --- | --- | --- |
| CC(C)(C)OC(=O)N[C@H]1CCCCC/C=C\[C@@H]2C[C@@]2(C(=O)NS(=O)(=O)N2CCOCC2)NC(=O)[C@@H]2C[C@@H](OC(=O)N3Cc4ccccc4C3)CN2C1=O [Compound 104, (1S,4R,6S,14S,18R)-1,3-Dihydro-isoindole-2-carboxylic acid 14-tert-butoxycarbonylamino-4-(morpholinosulfonyl-aminocarbonyl)-2,15-dioxo-3,16-diaza-tricyclo[14.3.0.0^4,6]nonadec-7-en-18-yl ester] | < 100 | < 100 |
| CN(C)S(=O)(=O)NC(=O)[C@@]12C[C@H]1/C=C\CCCCC[C@H](NC(=O)OC(C)(C)C)C(=O)N1C[C@H](OC(=O)N3CCc4ccccc4C3CN3CCCCC3)C[C@H]1C(=O)N2 (stereo partly drawn) [Compound 107, (1S,4R,6S,14S,18R)-1-Piperidin-1-ylmethyl-3,4-dihydro-1H-isoquinoline-2-carboxylic acid 14-tert-butoxycarbonylamino-2,15-dioxo-4-(N,N-dimethyl-sulfonylaminocarbonyl)-3,16-diaza-tricyclo[14.3.0.0^4,6]nonadec-7-en-18-yl ester] | < 100 | < 100 |
| CC(C)(C)OC(=O)N[C@H]1CCCCC/C=C\[C@@H]2C[C@@]2(C(=O)NS(=O)(=O)NC2CC2)NC(=O)[C@@H]2C[C@@H](OC(=O)N3CCc4ccccc4C3CN3CCCCC3)CN2C1=O (stereo partly drawn) [Compound 108] | < 1000 | < 100 |
| CC(C)(C)OC(=O)N[C@H]1CCCCC/C=C\[C@@H]2C[C@@]2(C(=O)NS(=O)(=O)N2CCCC2)NC(=O)[C@@H]2C[C@@H](OC(=O)N3CCc4ccccc4C3CN3CCCCC3)CN2C1=O (stereo partly drawn) [Compound 109, (1S,4R,6S,14S,18R)-1-Piperidin-1-ylmethyl-3,4-dihydro-1H-isoquinoline-2-carboxylic acid 14-tert-butoxycarbonylamino-2,15-dioxo-4-(pyrrolidino-sulfonylaminocarbonyl)-3,16-diaza-tricyclo[14.3.0.0^4,6]nonadec-7-en-18-yl ester] | < 100 | < 1000 |
| CN(C)S(=O)(=O)NC(=O)[C@@]12C[C@H]1/C=C\CCCCC[C@H](NC(=O)OC(C)(C)C)C(=O)N1C[C@H](OC(=O)N3Cc4ccc(Cl)cc4C3)C[C@H]1C(=O)N2 [Compound 113, (1S,4R,6S,14S,18R)-5-Chloro-1,3-Dihydro-isoindole-2-carboxylic acid 14-tert-butoxycarbonylamino-4-(N,N-dimethylsulfonyl-aminocarbonyl)-2,15-dioxo-3,16-diaza-tricyclo[14.3.0.0^4,6]nonadec-7-en-18-yl ester] | < 100 | < 100 |
| CC(C)(C)OC(=O)N[C@H]1CCCCC/C=C\[C@@H]2C[C@@]2(C(=O)NS(=O)(=O)NC2CC2)NC(=O)[C@@H]2C[C@@H](OC(=O)N3Cc4ccc(Cl)cc4C3)CN2C1=O [Compound 114] | < 100 | < 100 |
| CC(C)(C)OC(=O)N[C@H]1CCCCC/C=C\[C@@H]2C[C@@]2(C(=O)NS(=O)(=O)N2CCCC2)NC(=O)[C@@H]2C[C@@H](OC(=O)N3Cc4ccc(Cl)cc4C3)CN2C1=O [Compound 115, (1S,4R,6S,14S,18R)-5-Chloro-1,3-Dihydro-isoindole-2-carboxylic acid 14-tert-butoxycarbonylamino-4-(pyrrolidino-sulfonyl-aminocarbonyl)-2,15-dioxo-3,16-diaza-tricyclo[14.3.0.0^4,6]nonadec-7-en-18-yl ester] | < 100 | < 100 |
| CC(C)(C)OC(=O)N[C@H]1CCCCC/C=C\[C@@H]2C[C@@]2(C(=O)NS(=O)(=O)N2CCOCC2)NC(=O)[C@@H]2C[C@@H](OC(=O)N3Cc4ccc(Cl)cc4C3)CN2C1=O [Compound 116, (1S,4R,6S,14S,18R)-5-Chloro-1,3-Dihydro-isoindole-2-carboxylic acid 14-tert-butoxycarbonylamino-4-(morpholino-sulfonyl-aminocarbonyl)-2,15-dioxo-3,16-diaza-tricyclo[14.3.0.0^4,6]nonadec-7-en-18-yl ester] | < 100 | < 1000 |
| CC(C)(C)OC(=O)N[C@H]1CCCCC/C=C\[C@@H]2C[C@@]2(C(=O)NS(=O)(=O)N2CCC2)NC(=O)[C@@H]2C[C@@H](OC(=O)N3Cc4ccccc4C3)CN2C1=O [Compound 117, (1S,4R,6S,14S,18R)-1,3-Dihydro-isoindole-2-carboxylic acid 14-tert-butoxycarbonylamino-4-(azetidino-sulfonyl-aminocarbonyl)-2,15-dioxo-3,16-diaza-tricyclo[14.3.0.0^4,6]nonadec-7-en-18-yl ester] | < 100 | < 100 |
